Assay results published in patent US6060475A, “Substituted pyrazin-2-yl-sulphonamide-(3-pyridyl) compounds and uses thereof” (Zeneca Limited, priority 1995, dated 2000).

Tests used:
[1] = test system: pressor response induced by intravenously-administered proendothelin-1; test: Test D: antagonism of pressor response to intravenous proendothelin-1 in conscious rat after oral dosing; assay type: in vivo; settings: rats, dosed orally at 3 mg/kg, determined one hour after administration, n=5, 30 mmHg change level
From the text: Test D: This in vivo test involves the measurement of the antagonist effect of the test compound against the pressor response induced by intravenously-administered proendothelin-1 in a conscious rat preparation.
Male rats (260-290 g) are anaesthetised with Saffan administered via the tail vein. The right jugular vein and carotid artery are isolated and catheters filled with heparin implanted. These are exteriorised at the back of the neck using a metal trochar and the neck incision closed with autoclips. Rats are housed individually with free access to food and water during the recovery phase. Later in the day, food is removed and the rats are fasted overnight with free access to water. The following day the rats are placed in perspex restraining tubes and the arterial catheter drained and connected to a pressure transducer for measurement of mean arterial pressure. Following a ten minute stabilization period, proendothelin-1 (usually 0.3-1.0 nmol kg^-1) is administered cumulatively until a pressor response of 30 mmHg is achieved. The animals are then returned to their cages and allowed to recover for 2 hours. The test compound is administered orally (by gavage) at a known time point during the recovery period. […] Endothelin receptor antagonism is quantified by calculating dose ratio shifts at the 30 mmHg change level.

[2] = test system: Human ETA or ETB receptors; test: Test A: inhibition of [125I]-Endothelin-1 binding to MEL cell membranes expressing recombinant receptor; settings: receptor sub-type (ETA or ETB) not given
From the text: Test A: The endothelin receptor antagonist activity of compounds of formula I may be assessed in vitro by their ability to inhibit binding of [^125 I]-Endothelin-1 to its receptors. Human ETA or ETB receptors (sub-types of the endothelin receptor) were expressed in Mouse Erythroleukemic Cells (MEL cells) by using standard molecular techniques (for example, as described by Sambrook J., Fritsch E. F. & Maniatis T. (1989) Molecular Cloning: A Laboratory Manual, 2nd Edition, Cold Spring Harbor Press, USA). cDNA sequences encoding the human ETA and ETB receptor (Hosoda K. et al (1991), FEBS Lett., 287, 23-26 and Sakamoto A. et al, (1991), Biochem. Biophys Res. Comm., 178, 656-663) are subcloned into pBluescript vector followed by insertion into the MEL cell expression vector pEV as described by Needham et al (1992), Nuc. Acids Res., 20, 997-1003. […]
[^125 I]-Endothelin-1 binding to MEL cell membranes was measured in incubation buffer containing 50 mM Tris HCl 1 mM CaCl2, 0.05% polyoxyethylenesorbitan monolaurate, 0.1% Bovine Serum Albumin (BSA), 0.02% sodium azide pH 7.4 at 30° C. after 180 minutes incubation. […] Nonspecific binding was measured in the presence of 100 nM unlabelled Endothelin-1. […] The filter discs were punched out and counted in a gamma counter. Compounds are tested in triplicate over a range of concentrations and IC50 (or pIC50) values calculated.

In the case of COc1nc(C)cnc1NS(=O)(=O)c1cccnc1-c1ccc(OC(C)C)cc1 [Example 3, 2-(4-isopropoxyphenyl)-N-(3-methoxy-5-methylpyrazin-2-yl)pyridine-3-sulphonamide], the “mean dose ratio shift on the pressor response to proendothelin-1” value [1] is reported as 2.93 and the “pIC50 in Test A” value [2] is reported as 8.6.
